Data taken from ChEMBL document CHEMBL1201862, “PubChem BioAssay data set” (2004).
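All cell lines were grown in 96-well plates and treated with compound for 48 hours. GI50: concentration for 50% inhibition of growth.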 The source made the active and inactive calls. Cut-off read from the data, not from the text of the source: active = GI50 up to about 1.1 µM and inactive = higher.

Experiments:
Assay in all cases: inhibition of tumour cell growth, NCI panel, 48 h
HCT-116 = system: HCT-116
DU-145 = system: DU-145
M14 = system: M14
HL-60 = system: HL-60
OVCAR-5 = system: OVCAR-5
MDA-MB-231 = system: MDA-MB-231
MDA-MB-435 = system: MDA-MB-435
KM12 = system: KM12
OVCAR-4 = system: OVCAR-4
LOX IMVI = system: LOX IMVI
TK-10 = system: TK-10
SNB-19 = system: SNB-19
NCI-H226 = system: NCI-H226
A549 = system: A549
Malme-3M = system: Malme-3M
K562 = system: K562
SK-MEL-5 = system: SK-MEL-5
MDA-N = system: MDA-N
MCF7 = system: MCF7
HOP-92 = system: HOP-92

| Compound | GI50 (HCT-116) | GI50 (DU-145) | GI50 (M14) | GI50 (HL-60) | GI50 (OVCAR-5) | GI50 (MDA-MB-231) | GI50 (MDA-MB-435) | GI50 (KM12) | GI50 (OVCAR-4) | GI50 (LOX IMVI) | GI50 (TK-10) | GI50 (SNB-19) | GI50 (NCI-H226) | GI50 (A549) | GI50 (Malme-3M) | GI50 (K562) | GI50 (SK-MEL-5) | GI50 (MDA-N) | GI50 (MCF7) | GI50 (HOP-92) |
| --- | --- | --- | --- | --- | --- | --- | --- | --- | --- | --- | --- | --- | --- | --- | --- | --- | --- | --- | --- | --- |
| Cc1ccc2c(O)cc(-c3cc4ccccc4s3)nc2n1 | > 100 µM (inactive) | > 100 µM (inactive) | > 100 µM (inactive) | > 100 µM (inactive) | > 100 µM (inactive) | > 100 µM (inactive) | > 88.1 µM (inactive) | > 73.1 µM (inactive) | > 75 µM (inactive) | > 94.6 µM (inactive) | > 95.9 µM (inactive) | > 100 µM (inactive) | 14.2 µM (inactive) | > 100 µM (inactive) | > 48.1 µM (inactive) | > 100 µM (inactive) | 74.5 µM (inactive) | 98.9 µM (inactive) | 17.7 µM (inactive) | – |
| Cc1nc2ccccc2nc1N1CCCC1 | > 100 µM (inactive) | > 100 µM (inactive) | > 100 µM (inactive) | – | > 100 µM (inactive) | > 100 µM (inactive) | > 100 µM (inactive) | > 100 µM (inactive) | > 100 µM (inactive) | > 100 µM (inactive) | > 100 µM (inactive) | > 100 µM (inactive) | > 100 µM (inactive) | > 100 µM (inactive) | > 100 µM (inactive) | > 100 µM (inactive) | > 100 µM (inactive) | > 100 µM (inactive) | > 100 µM (inactive) | > 100 µM (inactive) |
| COc1ccccc1N1CCN(S(=O)(=O)c2ccc(Cl)cc2)C1=N | 27.9 µM (inactive) | 47.5 µM (inactive) | 26.2 µM (inactive) | – | 22.4 µM (inactive) | 37.1 µM (inactive) | 45.9 µM (inactive) | 82.4 µM (inactive) | 87.9 µM (inactive) | – | 60.7 µM (inactive) | 51.3 µM (inactive) | – | 34.2 µM (inactive) | – | 61.7 µM (inactive) | 56.2 µM (inactive) | 49.3 µM (inactive) | 52.2 µM (inactive) | – |
| CCOC(=O)C1CN(C2CC2)CCC1=O (stereo not given) | > 100 µM (inactive) | > 100 µM (inactive) | > 100 µM (inactive) | > 100 µM (inactive) | > 100 µM (inactive) | > 100 µM (inactive) | > 100 µM (inactive) | > 100 µM (inactive) | > 100 µM (inactive) | > 100 µM (inactive) | > 100 µM (inactive) | > 100 µM (inactive) | > 100 µM (inactive) | > 100 µM (inactive) | > 100 µM (inactive) | > 100 µM (inactive) | > 100 µM (inactive) | > 100 µM (inactive) | > 100 µM (inactive) | – |
| CC(/C=N\NC(=S)N1CCCCC1)=N/NC(=S)N1CCCCC1 | 0.627 µM (active) | 0.547 µM (active) | 1.28 µM (inactive) | – | 2.69 µM (inactive) | 2.45 µM (inactive) | 2.75 µM (inactive) | 1.09 µM (active) | 2.3 µM (inactive) | 0.82 µM (active) | 2.06 µM (inactive) | 2.14 µM (inactive) | 1.09 µM (active) | 0.692 µM (active) | 2.15 µM (inactive) | 1.12 µM (active) | 1.23 µM (inactive) | 2.89 µM (inactive) | 1.48 µM (inactive) | 2.38 µM (inactive) |
| CCCCNc1nc(N)nc(Nc2ccc(Br)cc2)c1N=O | 84.9 µM (inactive) | 96.8 µM (inactive) | > 100 µM (inactive) | 17.9 µM (inactive) | 77.4 µM (inactive) | 41.8 µM (inactive) | > 100 µM (inactive) | > 100 µM (inactive) | – | 31.6 µM (inactive) | > 100 µM (inactive) | > 100 µM (inactive) | > 100 µM (inactive) | 33.7 µM (inactive) | > 100 µM (inactive) | 38.9 µM (inactive) | > 100 µM (inactive) | > 100 µM (inactive) | 74.6 µM (inactive) | – |
| N=C(N)NC(=N)Nc1c(F)c(F)c(F)c(F)c1F | 70.5 µM (inactive) | > 100 µM (inactive) | 21.1 µM (inactive) | – | > 100 µM (inactive) | 62.2 µM (inactive) | > 100 µM (inactive) | > 100 µM (inactive) | > 100 µM (inactive) | – | 95.9 µM (inactive) | > 100 µM (inactive) | > 100 µM (inactive) | > 100 µM (inactive) | 69 µM (inactive) | 41.5 µM (inactive) | 44.8 µM (inactive) | 69.7 µM (inactive) | 49.4 µM (inactive) | 36.7 µM (inactive) |
| CCCC[Si](CCCC)(CCCC)O[C@@H](/C=C/C(=O)OCC)[C@H](Cc1ccccc1)O[Si](CCCC)(CCCC)CCCC | > 100 µM (inactive) | > 100 µM (inactive) | – | – | > 100 µM (inactive) | > 100 µM (inactive) | > 100 µM (inactive) | > 100 µM (inactive) | > 100 µM (inactive) | > 100 µM (inactive) | 40.1 µM (inactive) | > 100 µM (inactive) | > 100 µM (inactive) | > 100 µM (inactive) | > 100 µM (inactive) | > 100 µM (inactive) | – | > 100 µM (inactive) | > 100 µM (inactive) | > 100 µM (inactive) |
| CCCC1(N2C(=O)c3ccc4c5c(ccc(c35)C2=O)N(C2(CCC)CCCCC2)C4=O)CCCCC1 | > 100 µM (inactive) | > 100 µM (inactive) | > 100 µM (inactive) | – | > 100 µM (inactive) | > 100 µM (inactive) | > 100 µM (inactive) | > 100 µM (inactive) | > 100 µM (inactive) | – | > 100 µM (inactive) | > 100 µM (inactive) | – | > 100 µM (inactive) | > 100 µM (inactive) | > 100 µM (inactive) | > 100 µM (inactive) | > 100 µM (inactive) | > 100 µM (inactive) | > 100 µM (inactive) |
| O=C1C(CN2CCCCC2)CCCC1CN1CCCCC1 (stereo not given) | 15.4 µM (inactive) | 17.8 µM (inactive) | 20.7 µM (inactive) | – | > 55.6 µM (inactive) | 18.5 µM (inactive) | 17 µM (inactive) | 37 µM (inactive) | 14.4 µM (inactive) | 16.9 µM (inactive) | – | – | > 52.2 µM (inactive) | > 92 µM (inactive) | 8.07 µM (inactive) | – | 32.1 µM (inactive) | 16 µM (inactive) | 2.53 µM (inactive) | – |
| O=[N+]([O-])c1ccc(/C=C\c2ccc3c(c2)OCO3)c([N+](=O)[O-])c1 | 5.53 µM (inactive) | 18.3 µM (inactive) | 15.3 µM (inactive) | 17.4 µM (inactive) | 18.7 µM (inactive) | 17.2 µM (inactive) | 8.43 µM (inactive) | 15.3 µM (inactive) | – | 13.4 µM (inactive) | 17.3 µM (inactive) | 17.3 µM (inactive) | – | 20.1 µM (inactive) | 19.7 µM (inactive) | 21.3 µM (inactive) | 19 µM (inactive) | 5.52 µM (inactive) | 1.86 µM (inactive) | 21.2 µM (inactive) |
| COc1ccc2[nH]c3c(c2c1)CC(=O)N1CCC[C@H](C1)CC31OCCCO1 | > 100 µM (inactive) | > 100 µM (inactive) | > 100 µM (inactive) | – | > 100 µM (inactive) | > 100 µM (inactive) | > 100 µM (inactive) | > 100 µM (inactive) | > 100 µM (inactive) | – | > 100 µM (inactive) | > 100 µM (inactive) | > 100 µM (inactive) | > 100 µM (inactive) | > 100 µM (inactive) | – | > 100 µM (inactive) | > 100 µM (inactive) | > 100 µM (inactive) | 55 µM (inactive) |
| Oc1ccccc1C1=NOC(c2ccc(C(F)(F)F)cc2)C1 (stereo not given) | > 50 µM (inactive) | > 50 µM (inactive) | > 50 µM (inactive) | > 50 µM (inactive) | > 50 µM (inactive) | > 41.6 µM (inactive) | > 50 µM (inactive) | > 50 µM (inactive) | > 50 µM (inactive) | > 50 µM (inactive) | – | > 50 µM (inactive) | > 50 µM (inactive) | > 50 µM (inactive) | > 50 µM (inactive) | > 50 µM (inactive) | > 50 µM (inactive) | > 50 µM (inactive) | 0.665 µM (active) | – |
| CC(C)=NOC(=O)OC[C@H]1O[C@@H](n2cnc3c(N)ncnc32)C(O)C1O (stereo not given in full) | – | > 100 µM (inactive) | 87.7 µM (inactive) | 45.7 µM (inactive) | > 100 µM (inactive) | > 100 µM (inactive) | 82.6 µM (inactive) | > 100 µM (inactive) | > 100 µM (inactive) | 44.9 µM (inactive) | > 100 µM (inactive) | > 100 µM (inactive) | > 100 µM (inactive) | > 100 µM (inactive) | > 100 µM (inactive) | 30.1 µM (inactive) | > 100 µM (inactive) | 43.3 µM (inactive) | 91.6 µM (inactive) | – |
| C[C@H](OC(=O)/C=C/c1ccc(O)c(O)c1)[C@H](C)OC(=O)/C=C/c1ccc(O)c(O)c1 | 3.72 µM (inactive) | 11.6 µM (inactive) | 6.19 µM (inactive) | – | 14 µM (inactive) | 10.9 µM (inactive) | 4.84 µM (inactive) | 5.25 µM (inactive) | 5.09 µM (inactive) | 3.35 µM (inactive) | 10 µM (inactive) | 7.93 µM (inactive) | – | 7.94 µM (inactive) | 14.7 µM (inactive) | 4.61 µM (inactive) | 6.12 µM (inactive) | 4.45 µM (inactive) | 6.28 µM (inactive) | 15 µM (inactive) |
